Reference: patent US20250177366A1, “COMPOSITIONS AND METHODS FOR ALLEVIATING PAIN AND REDUCING ADVERSIVENESS OF STIMULI” (UNIVERSITY OF WASHINGTON, priority 2021, published 2025)

Experiments:
Type in all cases: in vivo, Zebrafish (Danio rerio)
larval zebrafish [1] = experiment: Thermal preference assay (28.5° C. vs 37.5° C.), non-sensitized; details: for temperature choice, drug alone / effect of co-applied drug on AS1-induced attraction to noxious heat / effect of structural analog on temperature preference (time spent in the 28.5° C. zone): 28.5° C. vs 37.5° C.; for temperature choice, drug alone: without AS1; for effect of co-applied drug on AS1-induced attraction to noxious heat: drug + 5 μM AS1; for Reverses 28.5° C. Choice?: temperature preference 28.5° C. vs 37.5° C., larval zebrafish; for effect of structural analog on temperature preference (time spent in the 28.5° C. zone): at the tested concentration
Experimental: Thermal preference assay. […] Once an entire plate was loaded with fish, the appropriate incubation solution was added. […] Following incubation in all experiments, the choice testing plate was transported to a dual solid-state heat/cool plate (AHP-1200° C. P; Teca) and centered such that half of each arena was positioned over each side of the heat/cool plate. […] Locomotor behavior was recorded using a Canon high-definition video camcorder suspended at a fixed position above the choice testing plate. Each trial was four minutes in duration.
For single-incubation assays (e.g. testing single chemicals), larval zebrafish were caught in 100 μL E2 media and 100 μL of the control (2% DMSO) or test chemical at 2× concentration was added to each well to achieve the final desired concentration. […] The final DMSO concentration in all solutions was 1%.

larval zebrafish [2] = experiment: AITC aversion assay (chemical attraction/aversion, AITC-infused agarose)
Source text: Whether the effects of AS1 extended beyond noxious temperature sensation or could also impact other somatosensory modalities was next explored. To accomplish this, a chemical attraction/aversion assay where a thin layer of agarose was deposited along the edges of a square arena (Jordi et al., Sci. Adv. 2018; 4:1-15) were adapted. Along one wall, the agarose contained the chemical to be tested, while the other three walls were lined with control agarose. It was anticipated that a chemical gradient would be established as chemical diffused from the agarose into the surrounding water. Larvae were pre-incubated in either vehicle or AS1 and then added to the arena and the distance of each larva from the chemical-infused agarose was measured. In control experiments where all four walls of the arena were lined with agarose only, AS1 and vehicle-treated larvae were dispersed evenly throughout the arena (FIG. 3). […] When the nociceptive chemical AITC (100 mM, 10,000× maximal effective dose) was tested, vehicle-treated larvae swam away from the AITC source.
Chemical attraction/aversion assays. The agarose attraction/aversion assay was adapted from previously described experiments (Jordi et al., Sci. Adv. 2018; 4:1-15). For the AITC aversion assay, AITC and DMSO were added to molten 0.8% agarose to achieve a final concentration of 100 mM AITC and 2% DMSO. For the AS1 attraction/aversion assay, AS1 and DMSO were added to 0.8% molten agar to achieve final concentrations of 50 mM and 2%, respectively. To construct the test chambers, the lids of 10×10 cm square petri dishes (insert cat #and company) were lined on four sides with either the test (chemical-containing) or plain agarose (300 μL per side) and allowed to solidify. For all experiments, 30-40 randomly selected 6 dpf zebrafish were caught with a 10 mL pipette pump (Bel-Air Products, cat #: 13683C) equipped with a glass wide-bored Pasteur pipet (Fisher Scientific, cat #: 22-037-540) and deposited into a standard 10 cm diameter petri dish (Fisher Scientific, cat #: 07-202-031). As much E2 media as possible was carefully removed using the same pipette. For single incubation experiments, 30 mL of 1× solutions of the control or test chemical was added to each petri dish, and fish were incubated for 10 minutes at 28.5° C. For double incubation experiments, 15 mL of 1× solutions containing control (DMSO) or test chemicals was added to the larvae-containing petri dish. Following a ten minute incubation, 15 mL of the second incubation solution (1× control or test chemical +/−2× AS1) was added to the petri dish, and the fish were incubated for a second ten minute block. The final concentration of DMSO in all solutions was 1%. In all double-incubation experiments, the final concentration of AS1 was 5 μM unless otherwise noted. After completion of the last incubation period, the contents of each petri dish were poured into separate agarose-lined square dishes. Swimming behavior was immediately recorded for 20 minutes using the same high-definition camcorder in the thermal preference assays.

larval zebrafish [3] = experiment: Light/dark preference (phototaxis) assay
Experimental: Following this, whether the effects of AS1 were restricted to somatosensation or were generalizable to other aversive stimuli were tested. Thus, the effects of AS1 on light/dark preference were tested. Zebrafish larvae prefer white light environments to dark environments and this preference is inhibited by anxiolytics, analagous to studies in rodents (Lau et al., Proc. Natl. Acad. Sci. U.S.A 2011; 108:2581-2586; Burgess et al., Curr. Biol. 2010; 20:381-386). To measure light/dark preference, larval zebrafish were placed in a square arena and given the choice between a bright white light and total darkness, and the number of larvae on each side was quantified at 30 second intervals. Five 4-minute trials were performed, where the light and dark sides of the arena were reversed between trials. […] Given the precise control over stimulus luminosity in this assay, the effects of altering the intensity of the dark stimulus were explored next. In this gradient version of the phototaxis assay, larval zebrafish were given the choice between a bright white environment and one of six potential shades of darkness, ranging from light gray to solid black. […] This implies that the valence of non-painful noxious stimuli is precisely encoded in an intensity-dependent manner, and that AS1 exerts its effects in proportion to the intensity of the stimulus.
Light/dark preference (phototaxis) assay. In the light/dark preference assay, randomly-selected 6 dpf larval zebrafish (N of 30 to 40) were carefully pipetted onto a 10 cm square petri dish using a 10 mL pipette pump equipped with a glass wide-bored Pasteur pipet. As much E2 media as possible was carefully removed using the same pipet. For single incubation experiments, 30 mL of 1× solutions of the control or test chemical was added to each petri dish, and fish were incubated for 10 minutes at 28.5° C. For double incubation experiments, 15 mL of 1× solutions containing control (DMSO) or test chemicals was added to the larvae-containing petri dish. Following a ten-minute incubation period, 15 mL of the second incubation solution (1× control or test chemical +/−2× AS1) was added to the petri dish, and the fish were incubated for a second ten minute block. The final concentration of DMSO in all solutions was 1%. In all double-incubation experiments, the final concentration of AS1 was 2.5 μM. These petri dishes were then positioned over a horizontally-oriented computer monitor displaying a PowerPoint presentation. For standard light/dark preference assays, a blank white slide was initially presented for one minute, after which the presentation would automatically advance to a slide in which half of the display was black. The petri dish with larvae was positioned such that exactly half was directly over the dark side, and the other half was directly over the light side. After four minutes, the presentation automatically advanced to a slide in which the black and white halves switched places. A total of five four-minute trials, with the dark/light halves automatically switching position between trials, were recorded. For the gradient phototaxis assay, experiments were performed identically, except that the “dark” half of the powerpoint presentation was one of six shades of gray.
In all experiments, an initial still frame of video was taken during the minute where the blank slide was presented in order to quantify the total number of fish in the experiment. Following this, still frames were taken at 30 second intervals for each trial ([…]), and the number of fish present in the light half of the arena were counted. To generate the graphs that looked at swimming patterns over time in a trial (e.g., FIG. 3D), the average percentage of fish in the light at each time point (T=0, T=30, etc.) was calculated across all five trials. […]

SMILES	temperature choice, drug alone (larval zebrafish [1])	effect of co-applied drug on AS1-induced attraction to noxious heat (larval zebrafish [1])	Reverses 28.5° C. Choice? (larval zebrafish [1])	effect of structural analog on temperature preference (time spent in the 28.5° C. zone) (larval zebrafish [1])	also measured
O=C1CC2(CCCC2)CC(=O)N1CCCCN1CCN(c2ncccn2)CC1 [Buspirone, buspirone]	had no effect upon thermal preference	–	–	–	–
C=CCN1CC[C@]23c4c5ccc(O)c4O[C@H]2C(=O)CC[C@@]3(O)[C@H]1C5 [Naloxone, naloxone]	significantly chose the 28.5 °C side of the arena	significantly chose the 37.5 °C side	–	–	effect of co-applied drug on AS1-induced attraction to AITC (larval zebrafish [2]; AITC 100 mM in agarose, drug + AS1 (5 μM; 2.5 μM with SKF and sumanirole)): did not reverse AS1-induced attraction towards AITC; AITC aversion, drug alone (larval zebrafish [2]; AITC 100 mM in agarose, without AS1): did not affect AITC avoidance; effect of co-applied drug on AS1-induced preference for the dark (larval zebrafish [3]; drug + 2.5 μM AS1): significantly preferred the dark, regardless of whether 1 μM naloxone was applied; light/dark preference, drug alone (larval zebrafish [3]; without AS1): significantly chose the light side of the arena
CC(C)c1ccc(NC(=O)c2cccnc2)cc1 [Compound 5538018, N-(4-isopropylphenyl)nicotinamide]	–	–	No	–	–
CN1C(=O)CN=C(c2ccccc2)c2cc(Cl)ccc21 [diazepam]	potentiated preference for 28.5 °C	–	–	–	–
Cc1cc(C)c(C(=O)Nc2ccncc2)c(C)c1 [Compound 9047736, 2,4,6-trimethyl-N-4-pyridinylbenzamide]	–	–	No	prevented an analogue from replicating the effects of AS1	–
COc1ccc(CC2NCCc3c2[nH]c2ccc(C)cc32)c(Cl)c1OC (centres unmarked) [LY266097]	significantly chose the 28.5 °C side	At no concentration did LY266097 influence AS1-induced attraction towards noxious heat	–	–	–
Cc1ccc(C(=O)Nc2ccncc2)c(C)c1 [Compound 7755382, 2,4-dimethyl-N-4-pyridinylbenzamide]	–	–	No	prevented an analogue from replicating the effects of AS1	–
CCc1ccc(C(=O)Nc2cccnc2)cc1 [Compound 7947669, 4-ethyl-N-3-pyridinylbenzamide]	–	–	No	–	–
Cc1noc(C)c1C(=O)Nc1ccc(C(C)C)cc1 [Compound 9089180, N-(4-isopropylphenyl)-3,5-dimethyl-4-isoxazolecarboxamide]	–	–	No	had a significant (if small) influence upon temperature choice behavior	–
CC(C)c1ccc(C(=O)Nc2cccnc2)cc1 [Compound 7301738, 4-isopropyl-N-3-pyridinylbenzamide]	–	–	No	only had a small, if still significant, effect on temperature preference	–
O=C(OCCN1CCOCC1)C1(c2ccccc2)CCCCC1 [PRE-084]	potentiating preference for the 28.5 °C zone	At no concentration did PRE-084 influence AS1-induced attraction towards noxious heat	–	–	–
COc1ccc(Br)cc1CCc1c(F)cccc1C1=NCCN1 [ML00253764]	slightly potentiate preference towards the 28.5 °C zone	At no concentration did ML00253764 reduce AS1-induced attraction towards noxious heat	–	–	–
CCCc1ccc(C(=O)Nc2ccncc2)cc1 [Compound 9089110, 4-propyl-N-4-pyridinylbenzamide]	–	–	No preference for either temperature	abolished preference for either side	effect of structural analog on temperature preference (time spent in the 28.5° C. zone) (larval zebrafish [1]; listed as Analog 9089110): completely ablated aversion
CC(N)Cc1c[nH]c2ccc(OCc3cccs3)cc12 (centres unmarked) [BW723C86]	significantly chose the 28.5 °C side	At no concentration did BW723C86 influence AS1-induced attraction towards noxious heat	–	–	–
CCCc1ccc(C(=O)Nc2cccnc2)cc1 [Compound 9090934, 4-propyl-N-3-pyridinylbenzamide]	–	–	No	has no effect upon temperature preference	–
Cn1c(=O)c2c(ncn2C)n(C)c1=O [caffeine]	did not affect thermal preference for 28.5 °C	–	–	–	–
CCCCc1ccc(C(=O)Nc2ccncc2)cc1 [Compound 9098532, 4-butyl-N-4-pyridinylbenzamide]	–	–	No	prevented an analogue from replicating the effects of AS1	–
CN1CCN(CCc2ccc(Cl)c(Cl)c2)CC1 [BD1063]	significantly chose the 28.5 °C side	At no concentration did BD1063 influence AS1-induced attraction towards noxious heat	–	–	–
CN1CCc2cc(Cl)c(O)cc2[C@@H](c2ccccc2)C1 [SCH23390]	–	–	–	–	concentrations that partially attenuate AS1-induced attraction to AITC (larval zebrafish [2]; SCH 1-20 μM + 5 μM AS1): ≥ 5 µM; concentration abolishing AS1-induced preference for the dark entirely (larval zebrafish [3]; SCH 10-20 μM + 2.5 μM AS1): 15 µM
